Nine compounds from PubChem BioAssay AID743163 (Broad Institute, 2013) can be followed below.

The test system of this experiment is Mycobacterium tuberculosis starved, CFU count by imaging. Briefly: Starved Mycobacterium tuberculosis, CFU count by imaging, inhibitor dose, dry powder (AID 743163). The conditions noted are these: stronger effect = lower value.

SMILES strings stand for the structures. Calls of active or inactive are those of the source. How the calls were made is not given here.

As for `Cn1c(NC(=O)c2ccccc2)nc2ccccc21`, the CFU is 0 CFU (CFU at 64 uM, at 64 µM) and 0 CFU (at 10 µM).
Turning to `CCOc1ccc(OC(=O)c2ccc3c(=O)n4c(nc3c2)CCC4)cc1`, the CFU is 3.25e+07 CFU (CFU at 64 uM, at 64 µM) and 3.2e+07 CFU (inactive) (at 10 µM).
Turning to `COc1ccc(CCNc2cc(-c3ccccc3)nc3ncnn23)cc1`, the CFU is, setting by setting: (CFU at 64 uM, at 64 µM) 2.5e+06 CFU; (at 10 µM) 2.65e+06 CFU.
Taken in the same sequence, the figures for `CCOC(=O)c1cc(COc2c(Cl)cccc2Cl)on1` were 1.11e+06 CFU and 3.08e+07 CFU.
Turning to `CSc1nsc(SCc2ccc(C(=O)Nc3cccc(C)c3)cc2)n1`, the CFU reads like this: (CFU at 64 uM, at 64 µM) 12600 CFU; (at 10 µM) 1.1e+06 CFU.
For the compound `COc1ccc(CNC(=O)Nc2ncc([N+](=O)[O-])s2)cc1`, the CFU is, setting by setting: (CFU at 64 uM, at 64 µM) 204000 CFU; (at 10 µM) 2.15e+06 CFU.
In the case of `CCC(C)n1nnc2c(=O)oc3ccccc3c21` (stereo not drawn), the CFU was 3.22e+06 CFU (CFU at 64 uM, at 64 µM) and 4.71e+06 CFU (at 10 µM).
Regarding `COC(=O)C(C)Oc1ccc2cc(-c3ccccc3)c(=O)oc2c1` (stereo not drawn), the CFU is 4.57e+06 CFU (CFU at 64 uM, at 64 µM) and 3.2e+07 CFU (inactive) (at 10 µM).
Taken in the same sequence, the figures for `c1ccc(-c2n[nH]c(-c3ccccn3)n2)nc1` were 1.91e+06 CFU and 6.09e+06 CFU.
